Results reported in US20200055808A1, “COMPOSITION FOR USE IN DETECTING AN ALLERGY TO CLAVULANIC ACID” (SERVICIO ANDALUZ DE SALUD, priority 2016, published 2020).

Assays:
[1] = tested on: IgE-mediated basophil activation pathway; assay: BAT with wortmannin (WTM) inhibition of the IgE-mediated basophil activation pathway; assay type: cell-based, human; conditions: WTM 1 μM; 8 mM: p=0.002 Clav2, p=0.001 Clav 5; 4 mM: p=0.001 both; FIG. 7
Protocol: To confirm that the activation of basophils was mediated by IgE, the inhibitory effect of wortmannin at 1 μM was analyzed. Wortmannin acts as a specific inhibitor of phosphatidylinositol 3-kinase (Pl3-K), which has proven to be one of the most important FceRI receptor-activated kinases involved in human basophil IgE-mediated stimulation. This was used with the positive control (anti-IgE) and the different haptenes and synthesized structures at the same concentrations described above.

basophils = assay: Basophil activation test (BAT) by flow cytometry; assay type: cell-based, human; conditions: for stimulation indices in patients compared to controls: 8, 4, 2, 1 mM, 7 patients positive for Clav 2 vs 6 controls, p=0.003 Clav 2 and p=0.015 Clav 5 at 8 mM, p=0.015 Clav 2 at 4 mM, FIG. 5; for BAT result (stimulation index): 5, 1 and 0.2 mM, 25 patients selective for CLV and 15 tolerant controls, positive at the highest concentration, FIG. 3
Text: The “basophil activation test” or “BAT” is an in vitro functional test which detects the activation of basophils after a stimulus with a specific antigen by detecting the expression of cell surface activation markers, which is usually monitored by flow cytometry using fluorescent monoclonal antibodies. Therefore, this test is used for the in vitro diagnosis of allergies. The technique comprises several steps: drawing blood and preparing the solution or suspension, performing stimulation with allergen(s), performing cellular marking with fluorescent antibodies which discriminate activated basophils, and performing counting in a flow cytometer. The technique can be carried out using as the substrate whole blood or the buffy coat previously isolated from the whole blood sample.
The BAT was performed as described by Torres M J et al. (Torres M J, et al. Clin Exp Allergy 2004; 34:1768-75) with CLV (Sigma Aldrich, Saint Louis, USA). […] The cells were stained with monoclonal antibodies, anti-CD63-FITC, CD203c-PE, CCR3-APC (Caltag Laboratories, Burlingame, Calif.), and measured in a FACSCalibur flow cytometer (Becton-Dickinson Bioscience, San José, Calif.) acquiring at least 500-1000 basophils per sample. The results were analyzed with FlowJo® software (Tree Star, Inc. USA), and the activation was expressed as a stimulation index (SI), calculated as the ratio between the percentage of activated basophils (CD63+ or CD203c+cells) in samples stimulated with different haptenes and non-stimulated sample. To calculate the SI, the percentage of spontaneously activated basophils was required to be equal to or greater than 5%, as described by Sanz M L et al. (Sanz M L, et al. Clin Exp Allergy 2002; 32:277-86).

[2] = 6 tolerant controls, same cutoff point, FIG. 6
[3] = 7 patients positive for Clav 2 in the preceding test, same cutoff point, FIG. 6
[4] = 15 tolerant subjects, cutoff SI CLV >1.5, Clav 2 >3 (ROC curves), FIG. 4
[5] = 25 patients selective for CLV, cutoff SI CLV >1.5, Clav 2 >3 (ROC curves), FIG. 4

SMILES	basophil activation after prior incubation with WTM [1]	percentage of positive cases in BAT (basophils; [2])	percentage of positive cases in BAT (basophils; [3])	stimulation indices in patients compared to controls (basophils)	BAT result (stimulation index) (basophils; first phase)	percentage of positive cases in BAT (basophils; [4])	percentage of positive cases in BAT (basophils; [5])	stimulation index in patients compared to the tolerant controls (basophils; first phase, 25 patients selective for CLV vs 15 tolerant controls, p<0.0001 (Mann-Whitney))
CCOC(CC(=O)OC(=O)CC(OCC)OCC)OCC [Clav 5, 3,3-diethoxypropanoic anhydride]	IgE-mediated and specific	28.6%	71.4%	higher stimulation indices				
CCCCNC(=O)CC(OC)OC [Clav 1, N-butyl-3,3-dimethoxypropanamide]					only Clav 2 provided positive results			
NCCC(=O)O [Clav 4, 3-aminopropanoic acid]					only Clav 2 provided positive results			
CCCCNC(=O)CCN [Clav 3, 3-amino-N-butylpropanamide]					only Clav 2 provided positive results			
CC(C)COC(=O)OC(=O)CC(=O)OC(=O)OCC(C)C [Clav 2, bis-((isobutoxycarbonyl)oxy)-1,3-dioxopropanoic anhydride]	IgE-mediated and specific	no positive case	85.7%	higher stimulation indices	positive results	33.3%	56%	significantly higher
O=C(O)[C@H]1/C(=C/CO)O[C@@H]2CC(=O)N21 [CLV, (3R,5R,Z)-2-(2-hydroxyethylidene)-7-oxo-1-oxa-4-aza-bicyclo[3.2.0]heptane-3-carboxylic acid, reference compound]						13.3%	24%	
